Data published in US20180042918A1, “RESPIRATORY INFECTION TREATING AGENT” (KYORIN PHARMACEUTICAL CO., LTD., priority 2015, published 2018).
In brackets after ≈: the same amount, converted by molar mass. Like-named read-outs stand apart in the source and are kept apart here. Marks after values point to notes of the source that are not given here.

Assays:
S. pneumoniae IID553 = assay: microbe, parasite or virus in culture; type: cell-based; conditions: Streptococcus pneumoniae
S. pneumoniae NF9884 = assay: microbe, parasite or virus in culture; type: cell-based; conditions: Streptococcus pneumoniae
S. pneumoniae CF9842 = assay: microbe, parasite or virus in culture; type: cell-based; conditions: Streptococcus pneumoniae
S. pneumoniae SF9863 = assay: microbe, parasite or virus in culture; type: cell-based; conditions: Streptococcus pneumoniae
S. pneumoniae GF9821 = assay: microbe, parasite or virus in culture; type: cell-based; conditions: Streptococcus pneumoniae
S. pneumoniae ST9941 = assay: microbe, parasite or virus in culture; type: cell-based; conditions: Streptococcus pneumoniae
S. pneumoniae SN9981 = assay: microbe, parasite or virus in culture; type: cell-based; conditions: Streptococcus pneumoniae
S. pneumoniae KY-9 = assay: Antibacterial activity against Streptococcus pneumoniae in vitro, CLSI microdilution; type: cell-based; conditions: KY9
Experimental: The antibacterial activities in vitro of the compound D, garenoxacin, and levofloxacin against a strain in a mouse infected with Streptococcus pneumoniae (S. pneumonia KY-9) were measured in accordance with a CLSI microdilution method.

[1] = system: H. influenzaes (26 STRAINS); assay: Antibacterial activity against clinically isolated strains, MIC90; type: cell-based; conditions: Haemophilus influenzae, 26 clinically isolated strains
Experimental: (§1) The antibacterial activities in vitro of the compound D, garenoxacin, and levofloxacin against each clinically isolated strain of Streptococcus pneumoniae, Moraxella catarrhalis, and Haemophilus influenzae were measured in accordance with a CLSI microdilution method or a CLSI agar dilution method. A MIC90 value was the minimum concentration in which the growth of 90% strain of all the measured strains was inhibited.

[2] = system: M. catarrhalis (26 STRAINS); assay: as above; type: cell-based; conditions: Moraxella catarrhalis, 26 clinically isolated strains
Experimental: as §1

[3] = system: PCG-LOW SENSITIVE S. pneumoniae (22 STRAINS); assay: as above; type: cell-based; conditions: Streptococcus pneumoniae, 22 clinically isolated strains
Experimental: as §1

PSSP (26 STRAINS) = assay: as above; type: cell-based; conditions: Streptococcus pneumoniae, 26 clinically isolated strains
Experimental: as §1

S. aureus ATCC29213 [4] = assay: MIC of strain used for resistance frequency test; type: cell-based; conditions: Staphylococcus aureus, ATCC29213
E. coli ATCC25922 [5] = assay: microbe, parasite or virus in culture; type: cell-based; conditions: Escherichia coli
S. pneumoniae ATCC49619 [6] = assay: microbe, parasite or virus in culture; type: cell-based; conditions: Streptococcus pneumoniae
S. aureus ATCC29213 [7] = assay: Frequency of development of resistant bacteria; type: cell-based, Staphylococcus aureus; conditions: about 70 hours
Experimental: (§2) S. aureus ATCC29213 is Staphylococcus aureus, S. pneumoniae ATCC49619 is Streptococcus pneumoniae, and E. coli ATCC25922 is Escherichia coli. […]
(§3) The frequency of development of resistant bacteria was calculated by dividing the number of colonies developed on an agar medium having each drug concentration by the number of initially inoculated bacteria.

E. coli ATCC25922 [8] = assay: Frequency of development of resistant bacteria; type: cell-based, Escherichia coli; conditions: about 70 hours
Experimental: as §2, §3

S. pneumoniae ATCC49619 [9] = assay: Frequency of development of resistant bacteria; type: cell-based, Streptococcus pneumoniae; conditions: about 70 hours
Experimental: as §2, §3

[10] = biological target: DNA gyrase derived from S. aureus (Staphylococcus aureus, UniProt P0A0K8+P20831); assay: Enzyme inhibitory activity, supercoiling of relaxed pBR322; type: biochemical; conditions: S. aureus enzyme; average of three or average ± SD; read-out: IC50 VALUE, DNA gyrase (converted)
Experimental: (§4) Agents Chemother. 45: 3544-3547 (2001). […] The measurement was performed in the same manner as in Test Example 3. Similarly, the inhibitory activities of ciproxacin, levofloxacin, and garenoxacin were measured. The results were compared.

[11] = biological target: QUINOLONE RESISTANT DNA gyrase (quinolone-resistant S. aureus) (Staphylococcus aureus, UniProt P20831); assay: as above; type: biochemical; conditions: average of three or average ± SD, read-out: IC50 VALUE, QUINOLONE RESISTANT DNA gyrase (converted)
Experimental: as §4

[12] = biological target: QUINOLONE RESISTANT Topoisomerase IV (S. aureus) (Staphylococcus aureus, UniProt P0C1U9); assay: Enzyme inhibitory activity, decatenation of kinetoplast DNA; type: biochemical; conditions: read-out: IC50 VALUE, QUINOLONE RESISTANT Topoisomerase IV (converted)
Experimental: as §4

[13] = biological target: Topoisomerase IV (S. aureus) (Staphylococcus aureus, UniProt P0C1S7+P0C1U9); assay: as above; type: biochemical; conditions: S. aureus enzyme; read-out: IC50 VALUE, Topoisomerase IV (converted)
Experimental: as §4

S. aureus MS5935 = assay: Antibacterial activity against quinolone-resistant strain in vitro, CLSI dilution; type: cell-based; conditions: Staphylococcus aureus; S. aureus MS5935, PARENT STRAIN, gyrA None, grlA None
[14] = system: S. aureus MS5935 gyrA mutant; assay: microbe, parasite or virus in culture; type: cell-based; conditions: Staphylococcus aureus
S. aureus MS5935 1st = assay: microbe, parasite or virus in culture; type: cell-based; conditions: Staphylococcus aureus, MS59351ST
S. aureus MS5935 2nd = assay: microbe, parasite or virus in culture; type: cell-based; conditions: Staphylococcus aureus, MS59352ND
S. aureus MS5935 3rd = assay: microbe, parasite or virus in culture; type: cell-based; conditions: Staphylococcus aureus, MS59353RD
S. aureus MS5935 4th = assay: microbe, parasite or virus in culture; type: cell-based; conditions: Staphylococcus aureus, MS59354TH
[15] = consecutive administration, daily dose of 500 mg; cited from earlier work
[16] = biological target: DNA gyrase derived from S. pneumoniae IID553 (Streptococcus pneumoniae serotype 4, UniProt P0A4L9+P72524); assay: Enzyme inhibitory activity, supercoiling of relaxed pBR322
[17] = biological target: Topoisomerase IV (S. pneumoniae IID553) (Streptococcus pneumoniae serotype 4, UniProt P72525+Q59961); assay: Enzyme inhibitory activity, decatenation of kinetoplast DNA
[18] = cited from earlier work

## C[C@H]1COc2c(N3CCN(C)CC3)c(F)cc3c(=O)c(C(=O)O)cn1c23 [LVFX, levofloxacin]
S. pneumoniae IID553
  MIC: 1 mg/L (≈ 2.77 µM)
S. pneumoniae NF9884
  MIC: 2 mg/L (≈ 5.53 µM)
S. pneumoniae CF9842
  MIC: 2 mg/L (≈ 5.53 µM)
S. pneumoniae SF9863
  MIC: 2 mg/L (≈ 5.53 µM)
S. pneumoniae GF9821
  MIC: 2 mg/L (≈ 5.53 µM)
S. pneumoniae ST9941
  MIC: 16 mg/L (≈ 44.3 µM)
S. pneumoniae SN9981
  MIC: 16 mg/L (≈ 44.3 µM)
S. pneumoniae KY-9
  MIC: 1 mg/L (≈ 2.77 µM)
[1]
  MIC90: 0.03 mg/L (≈ 0.083 µM)
[2]
  MIC90: 0.03 mg/L (≈ 0.083 µM)
[3]
  MIC90: 1 mg/L (≈ 2.77 µM)
PSSP (26 STRAINS)
  MIC90: 1 mg/L (≈ 2.77 µM)
S. aureus ATCC29213 [4]
  MIC: 0.125 mg/L
E. coli ATCC25922 [5]
  MIC: 0.015 mg/L (≈ 0.0415 µM)
S. pneumoniae ATCC49619 [6]
  MIC: 1 mg/L (≈ 2.77 µM)
S. aureus ATCC29213 [7]; S. aureus ATCC29213, 4 × MIC
  FREQUENCY OF DEVELOPMENT OF RESISTANT BACTERIA (AVERAGE OF TWO MEASURED VALUES): <2.1 × 10^−9
S. aureus ATCC29213 [7]; S. aureus ATCC29213, 8 × MIC
  FREQUENCY OF DEVELOPMENT OF RESISTANT BACTERIA (AVERAGE OF TWO MEASURED VALUES): <2.1 × 10^−9
S. aureus ATCC29213 [7]; S. aureus ATCC29213, 16 × MIC
  FREQUENCY OF DEVELOPMENT OF RESISTANT BACTERIA (AVERAGE OF TWO MEASURED VALUES): <2.1 × 10^−9
E. coli ATCC25922 [8]; E. coli ATCC25922, 4 × MIC
  FREQUENCY OF DEVELOPMENT OF RESISTANT BACTERIA (AVERAGE OF TWO MEASURED VALUES): 3.9 × 10^−9*
E. coli ATCC25922 [8]; E. coli ATCC25922, 8 × MIC
  FREQUENCY OF DEVELOPMENT OF RESISTANT BACTERIA (AVERAGE OF TWO MEASURED VALUES): <1.9 × 10^−9
E. coli ATCC25922 [8]; E. coli ATCC25922, 16 × MIC
  FREQUENCY OF DEVELOPMENT OF RESISTANT BACTERIA (AVERAGE OF TWO MEASURED VALUES): <1.9 × 10^−9
S. pneumoniae ATCC49619 [9]; S. pneumoniae ATCC49619, 4 × MIC
  FREQUENCY OF DEVELOPMENT OF RESISTANT BACTERIA (AVERAGE OF TWO MEASURED VALUES): <1.1 × 10^−8
S. pneumoniae ATCC49619 [9]; S. pneumoniae ATCC49619, 8 × MIC
  FREQUENCY OF DEVELOPMENT OF RESISTANT BACTERIA (AVERAGE OF TWO MEASURED VALUES): <1.1 × 10^−8
S. pneumoniae ATCC49619 [9]; S. pneumoniae ATCC49619, 16 × MIC
  FREQUENCY OF DEVELOPMENT OF RESISTANT BACTERIA (AVERAGE OF TWO MEASURED VALUES): <1.1 × 10^−8
[10]
  IC50: 44.3 µM
[11]
  IC50: 3600 µM
[12]
  IC50: 238 µM
[13]
  IC50: 7.75 µM
S. aureus MS5935
  MIC: 0.125 mg/L (≈ 0.346 µM)
[14]
  MIC: 0.25 mg/L (≈ 0.692 µM)
S. aureus MS5935 1st
  MIC: 0.5 mg/L (≈ 1.38 µM)
S. aureus MS5935 2nd
  MIC: 8 mg/L (≈ 22.1 µM)
S. aureus MS5935 3rd
  MIC: 32 mg/L (≈ 88.6 µM)
S. aureus MS5935 4th
  MIC: 128 mg/L (≈ 354 µM)
[15]
  AUC: 49.67 µg·h/mL
  Cmax: 6.32 µg/mL
[16]
  IC50: 443 µM
[17]
  IC50: 30.4 µM

## CC1COc2c(N3CCN(C)CC3)c(F)cc3c(=O)c(C(=O)O)cn1c23 (stereo not shown) [ofloxacin]
[18]; rat, 1.0 hour after oral administration
  tissue distribution ratio into the lung tissue: 2.7

## N[C@@H]1CN(c2c(F)cc3c(=O)c(C(=O)O)cn([C@@H]4C[C@@H]4F)c3c2Cl)CC12CC2 [sitafloxacin]
[18]; male rat, 0.5 hours after single oral administration
  tissue distribution ratio into the lung tissue: 2.7
